The text below walks through data of ChEMBL document CHEMBL5352421, “Identification of novel piperazine-tethered phthalazines as selective CDK1 inhibitors endowed with in vitro anticancer activity toward the pancreatic cancer” (Eur J Med Chem, 2022).

One experiment deals with BT-549. Nature of the experiment: Antiproliferative activity against human BT-549 cells assessed as growth inhibition incubated at 10 uM for 24 hrs by MTT assay relative to control. It counts as functional. The following applies: read-out: GI.
A short description of experiment [1]: Antiproliferative activity against human PL45 cells assessed as growth inhibition incubated at 10 uM for 24 hrs by MTT assay relative to control. The class given is functional. The following applies: read-out: GI.
The target in experiment [2] is Insulin-like growth factor 1 receptor (Homo sapiens, UniProt P08069). Nature of the experiment: Inhibition of IGF1R (unknown origin) by FRET assay.
The next experiment concerns HT-29. Nature of the experiment: Antiproliferative activity against human HT-29 cells assessed as growth inhibition incubated at 10 uM for 24 hrs by MTT assay relative to control. The following applies: read-out: GI. The class given is functional. (Tetrazolium dyes change colour on reduction, which living cells bring about.)
The target in experiment [3] is Fibroblast growth factor receptor (Homo sapiens, UniProt P22607+P11362+P22455+P21802). Kind of experiment: Inhibition of FGFR (unknown origin) by FRET assay. The class given is protein assay.
Another experiment concerns KG-1. Kind of experiment: Antiproliferative activity against human KG-1 cells assessed as growth inhibition incubated at 10 uM for 24 hrs by MTT assay relative to control. It counts as functional. To be noted: read-out: GI.
Experiment [4] can be described thus: Antiproliferative activity against human MDA-PATC53 cells assessed as growth inhibition incubated for 24 hrs by MTT assay. The class given is functional, cell-based. To be noted: MDA-PATC53, 24 h.
For experiment [5], the target named is Cyclin-dependent kinase 1 (Homo sapiens, UniProt P06493). Nature of the experiment: Inhibition of CDK1 (unknown origin) by FRET assay.
Experiment [6] addresses Serine/threonine-protein kinase B-raf (Homo sapiens, UniProt P15056). Kind of experiment: Inhibition of BRAF (unknown origin) by FRET assay.
A further experiment has as its system T84. Kind of experiment: Antiproliferative activity against human T84 cells assessed as growth inhibition incubated at 10 uM for 24 hrs by MTT assay relative to control. The class given is functional. The following applies: read-out: GI.
A further experiment has as its system MCF7. Kind of experiment: Antiproliferative activity against human MCF7 cells assessed as growth inhibition incubated at 10 uM for 24 hrs by MTT assay relative to control. It counts as functional. To be noted: read-out: GI.
Experiment [7] in a line: Selectivity index, ratio of IC50 for CDK2 (unknown origin) to CDK1 (unknown origin).
Another experiment concerns SK-MEL-1. Nature of the experiment: Antiproliferative activity against human SK-MEL-1 cells assessed as growth inhibition incubated at 10 uM for 24 hrs by MTT assay relative to control. To be noted: read-out: GI. The class given is functional.
The target of experiment [8] is Cyclin-dependent kinase 2 (Homo sapiens, UniProt P24941). Nature of the experiment: Inhibition of CDK2 (unknown origin) by FRET assay.
In the next experiment the test system is G-361. Kind of experiment: Antiproliferative activity against human G-361 cells assessed as growth inhibition incubated at 10 uM for 24 hrs by MTT assay relative to control. The class given is functional. To be noted: read-out: GI.
Another experiment relates to A-375. Kind of experiment: Antiproliferative activity against human A-375 cells assessed as growth inhibition incubated at 10 uM for 24 hrs by MTT assay relative to control. The following applies: read-out: GI. It counts as functional.
Experiment [9] concerns the target T1, Tyrosine-protein kinase receptor UFO (Homo sapiens, UniProt P30530).
T1 sequence (P30530 whole entry): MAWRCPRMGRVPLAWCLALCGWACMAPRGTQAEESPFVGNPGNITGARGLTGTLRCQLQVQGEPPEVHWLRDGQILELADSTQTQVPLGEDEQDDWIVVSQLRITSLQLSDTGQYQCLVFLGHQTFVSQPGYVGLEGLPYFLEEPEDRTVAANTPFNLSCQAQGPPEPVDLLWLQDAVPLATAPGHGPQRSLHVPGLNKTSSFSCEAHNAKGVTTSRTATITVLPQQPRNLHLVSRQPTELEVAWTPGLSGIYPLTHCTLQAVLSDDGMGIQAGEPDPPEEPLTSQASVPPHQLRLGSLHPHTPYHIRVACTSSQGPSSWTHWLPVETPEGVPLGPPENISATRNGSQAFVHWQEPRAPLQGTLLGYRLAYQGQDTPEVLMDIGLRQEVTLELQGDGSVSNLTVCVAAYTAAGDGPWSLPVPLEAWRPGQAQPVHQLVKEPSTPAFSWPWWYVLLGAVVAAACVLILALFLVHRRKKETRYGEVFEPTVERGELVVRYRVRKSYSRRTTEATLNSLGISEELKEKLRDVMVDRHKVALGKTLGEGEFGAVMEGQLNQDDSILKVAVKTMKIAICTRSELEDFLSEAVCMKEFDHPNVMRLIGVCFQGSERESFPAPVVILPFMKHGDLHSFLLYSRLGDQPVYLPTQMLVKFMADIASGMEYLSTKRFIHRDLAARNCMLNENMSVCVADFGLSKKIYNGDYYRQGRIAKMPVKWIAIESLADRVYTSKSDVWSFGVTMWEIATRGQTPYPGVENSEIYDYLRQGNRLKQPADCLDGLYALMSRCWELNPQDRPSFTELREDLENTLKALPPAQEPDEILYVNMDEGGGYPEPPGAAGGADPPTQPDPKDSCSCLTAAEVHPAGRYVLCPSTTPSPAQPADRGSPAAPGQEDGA
Kind of experiment: Inhibition of AXL (unknown origin) by FRET assay.

Experiment [10] deals with Tyrosine-protein kinase JAK1 (Homo sapiens, UniProt P23458). Kind of experiment: Inhibition of JAK1 (unknown origin) by FRET assay.
Experiment [11] can be described thus: Antiproliferative activity against human PL45 cells assessed as growth inhibition incubated for 24 hrs by MTT assay. To be noted: PL45, 24 h. It counts as functional, cell-based.
Experiment [12] addresses Cyclin-dependent kinase 5 (Homo sapiens, UniProt Q00535). Kind of experiment: Inhibition of CDK5 (unknown origin) by FRET assay.
Experiment [13] is described as follows: Selectivity index, ratio of IC50 for CDK5 (unknown origin) to CDK1 (unknown origin).
Experiment [14] concerns the target Protein-tyrosine kinase 2-beta (Homo sapiens, UniProt Q14289). Kind of experiment: Inhibition of PTK2B (unknown origin) by FRET assay.
Experiment [15] in a line: Antiproliferative activity against human MDA-PATC53 cells assessed as growth inhibition incubated at 10 uM for 24 hrs by MTT assay relative to control. The class given is functional. To be noted: read-out: GI.
A further experiment has as its system MOLT-4. Kind of experiment: Antiproliferative activity against human MOLT-4 cells assessed as growth inhibition incubated at 10 uM for 24 hrs by MTT assay relative to control. The class given is functional. The following applies: read-out: GI.

Sequence of Cyclin-dependent kinase 1 (P06493 whole entry): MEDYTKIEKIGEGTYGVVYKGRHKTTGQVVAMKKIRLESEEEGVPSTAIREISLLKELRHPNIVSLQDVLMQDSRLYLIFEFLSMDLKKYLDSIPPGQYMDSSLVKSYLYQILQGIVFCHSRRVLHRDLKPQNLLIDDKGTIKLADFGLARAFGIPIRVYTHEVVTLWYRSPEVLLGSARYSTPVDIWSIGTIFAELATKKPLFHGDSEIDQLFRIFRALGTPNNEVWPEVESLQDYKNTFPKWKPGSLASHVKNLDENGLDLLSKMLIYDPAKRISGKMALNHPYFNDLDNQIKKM
Sequence of Serine/threonine-protein kinase B-raf (P15056 whole entry): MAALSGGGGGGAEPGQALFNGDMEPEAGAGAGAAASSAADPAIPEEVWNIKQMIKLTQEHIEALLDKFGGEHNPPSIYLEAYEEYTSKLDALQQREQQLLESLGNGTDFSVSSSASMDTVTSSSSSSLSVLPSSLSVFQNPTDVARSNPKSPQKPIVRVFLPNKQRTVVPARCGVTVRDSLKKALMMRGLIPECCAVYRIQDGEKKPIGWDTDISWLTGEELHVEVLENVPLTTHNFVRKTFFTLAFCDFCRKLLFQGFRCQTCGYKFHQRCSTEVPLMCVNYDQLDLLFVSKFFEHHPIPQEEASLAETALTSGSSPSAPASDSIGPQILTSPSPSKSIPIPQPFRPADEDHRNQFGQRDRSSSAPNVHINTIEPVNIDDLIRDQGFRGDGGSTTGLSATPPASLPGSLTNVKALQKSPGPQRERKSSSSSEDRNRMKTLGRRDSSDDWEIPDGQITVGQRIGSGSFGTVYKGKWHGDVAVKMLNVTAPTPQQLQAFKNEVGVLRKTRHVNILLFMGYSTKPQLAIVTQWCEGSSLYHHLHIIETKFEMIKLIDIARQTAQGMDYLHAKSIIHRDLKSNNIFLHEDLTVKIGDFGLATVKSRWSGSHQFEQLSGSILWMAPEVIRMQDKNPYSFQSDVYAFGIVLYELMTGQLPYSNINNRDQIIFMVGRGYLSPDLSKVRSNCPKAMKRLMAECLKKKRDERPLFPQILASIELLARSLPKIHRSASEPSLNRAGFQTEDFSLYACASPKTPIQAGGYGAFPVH
Sequence of Tyrosine-protein kinase JAK1 (P23458 whole entry): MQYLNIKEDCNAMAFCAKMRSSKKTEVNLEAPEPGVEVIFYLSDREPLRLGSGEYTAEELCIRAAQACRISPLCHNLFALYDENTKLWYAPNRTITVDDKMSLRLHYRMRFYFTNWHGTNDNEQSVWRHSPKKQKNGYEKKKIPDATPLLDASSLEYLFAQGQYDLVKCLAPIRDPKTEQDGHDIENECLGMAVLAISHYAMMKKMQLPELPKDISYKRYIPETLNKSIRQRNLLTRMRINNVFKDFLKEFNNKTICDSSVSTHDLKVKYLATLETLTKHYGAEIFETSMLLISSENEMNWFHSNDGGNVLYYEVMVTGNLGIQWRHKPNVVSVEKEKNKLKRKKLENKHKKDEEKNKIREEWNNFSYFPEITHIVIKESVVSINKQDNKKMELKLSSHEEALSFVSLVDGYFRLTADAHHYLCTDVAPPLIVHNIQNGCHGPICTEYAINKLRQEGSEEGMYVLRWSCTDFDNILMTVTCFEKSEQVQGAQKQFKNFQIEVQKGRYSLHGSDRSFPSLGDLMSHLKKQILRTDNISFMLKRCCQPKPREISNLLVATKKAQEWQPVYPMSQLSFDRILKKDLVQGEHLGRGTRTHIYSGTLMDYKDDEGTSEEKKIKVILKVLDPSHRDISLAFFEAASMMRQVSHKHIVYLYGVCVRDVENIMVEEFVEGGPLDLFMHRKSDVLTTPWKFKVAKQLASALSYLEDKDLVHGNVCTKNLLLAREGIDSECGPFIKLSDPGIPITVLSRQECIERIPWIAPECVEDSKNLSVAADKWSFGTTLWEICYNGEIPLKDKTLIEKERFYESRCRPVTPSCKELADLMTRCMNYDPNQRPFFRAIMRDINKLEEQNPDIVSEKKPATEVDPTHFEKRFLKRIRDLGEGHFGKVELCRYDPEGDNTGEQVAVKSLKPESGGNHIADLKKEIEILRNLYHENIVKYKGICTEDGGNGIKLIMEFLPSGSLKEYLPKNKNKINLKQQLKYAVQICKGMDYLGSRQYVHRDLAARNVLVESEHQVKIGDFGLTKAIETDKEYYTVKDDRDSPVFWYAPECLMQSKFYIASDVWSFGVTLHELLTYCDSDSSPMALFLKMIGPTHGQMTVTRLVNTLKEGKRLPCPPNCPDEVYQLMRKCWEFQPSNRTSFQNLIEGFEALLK
Sequence of Insulin-like growth factor 1 receptor (P08069 31-736 limits assumed): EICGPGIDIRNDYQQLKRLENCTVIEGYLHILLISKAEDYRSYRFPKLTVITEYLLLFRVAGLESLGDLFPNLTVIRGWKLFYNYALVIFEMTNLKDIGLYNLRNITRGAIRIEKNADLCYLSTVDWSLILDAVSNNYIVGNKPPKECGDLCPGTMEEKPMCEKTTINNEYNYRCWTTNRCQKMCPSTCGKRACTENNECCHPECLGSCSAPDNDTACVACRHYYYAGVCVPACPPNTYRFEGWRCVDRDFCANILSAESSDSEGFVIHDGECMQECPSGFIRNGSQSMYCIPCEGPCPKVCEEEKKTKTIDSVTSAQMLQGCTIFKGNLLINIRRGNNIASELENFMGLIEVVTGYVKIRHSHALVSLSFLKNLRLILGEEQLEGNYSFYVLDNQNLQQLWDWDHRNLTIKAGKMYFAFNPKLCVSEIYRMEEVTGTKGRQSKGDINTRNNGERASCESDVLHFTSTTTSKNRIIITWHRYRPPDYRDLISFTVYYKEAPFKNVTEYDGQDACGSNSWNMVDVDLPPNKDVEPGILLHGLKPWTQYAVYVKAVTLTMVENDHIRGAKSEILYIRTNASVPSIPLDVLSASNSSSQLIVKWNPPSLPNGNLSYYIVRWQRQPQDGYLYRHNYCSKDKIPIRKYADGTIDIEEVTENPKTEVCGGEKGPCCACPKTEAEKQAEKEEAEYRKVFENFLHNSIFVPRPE
Sequence of Insulin-like growth factor 1 receptor (P08069 741-1367 limits assumed): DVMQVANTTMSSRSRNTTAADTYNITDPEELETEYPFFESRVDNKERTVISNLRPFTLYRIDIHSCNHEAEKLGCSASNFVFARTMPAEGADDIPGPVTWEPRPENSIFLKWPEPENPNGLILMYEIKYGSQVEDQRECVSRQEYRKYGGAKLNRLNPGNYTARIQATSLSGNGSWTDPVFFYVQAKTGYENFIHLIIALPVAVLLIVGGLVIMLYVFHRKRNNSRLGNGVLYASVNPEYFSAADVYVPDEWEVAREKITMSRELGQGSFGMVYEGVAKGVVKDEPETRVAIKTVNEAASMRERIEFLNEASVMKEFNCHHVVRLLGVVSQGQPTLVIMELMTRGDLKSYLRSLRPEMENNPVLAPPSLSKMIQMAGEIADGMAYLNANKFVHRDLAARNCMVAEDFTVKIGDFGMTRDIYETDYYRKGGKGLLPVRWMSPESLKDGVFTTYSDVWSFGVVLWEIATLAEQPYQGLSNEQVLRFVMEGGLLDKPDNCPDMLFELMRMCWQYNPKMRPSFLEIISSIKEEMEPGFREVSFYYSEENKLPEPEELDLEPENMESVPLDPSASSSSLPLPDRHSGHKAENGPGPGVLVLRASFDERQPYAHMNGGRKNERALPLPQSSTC
Sequence of Cyclin-dependent kinase 5 (Q00535 whole entry): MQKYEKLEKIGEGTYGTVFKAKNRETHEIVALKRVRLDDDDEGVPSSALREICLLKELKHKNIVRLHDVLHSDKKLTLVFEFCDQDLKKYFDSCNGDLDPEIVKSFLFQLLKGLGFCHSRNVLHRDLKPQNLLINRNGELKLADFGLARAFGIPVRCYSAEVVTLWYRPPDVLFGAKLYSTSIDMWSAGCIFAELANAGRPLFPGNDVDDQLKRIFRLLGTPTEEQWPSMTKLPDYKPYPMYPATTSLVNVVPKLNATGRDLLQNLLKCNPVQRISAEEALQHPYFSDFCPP
Sequence of Protein-tyrosine kinase 2-beta (Q14289 whole entry): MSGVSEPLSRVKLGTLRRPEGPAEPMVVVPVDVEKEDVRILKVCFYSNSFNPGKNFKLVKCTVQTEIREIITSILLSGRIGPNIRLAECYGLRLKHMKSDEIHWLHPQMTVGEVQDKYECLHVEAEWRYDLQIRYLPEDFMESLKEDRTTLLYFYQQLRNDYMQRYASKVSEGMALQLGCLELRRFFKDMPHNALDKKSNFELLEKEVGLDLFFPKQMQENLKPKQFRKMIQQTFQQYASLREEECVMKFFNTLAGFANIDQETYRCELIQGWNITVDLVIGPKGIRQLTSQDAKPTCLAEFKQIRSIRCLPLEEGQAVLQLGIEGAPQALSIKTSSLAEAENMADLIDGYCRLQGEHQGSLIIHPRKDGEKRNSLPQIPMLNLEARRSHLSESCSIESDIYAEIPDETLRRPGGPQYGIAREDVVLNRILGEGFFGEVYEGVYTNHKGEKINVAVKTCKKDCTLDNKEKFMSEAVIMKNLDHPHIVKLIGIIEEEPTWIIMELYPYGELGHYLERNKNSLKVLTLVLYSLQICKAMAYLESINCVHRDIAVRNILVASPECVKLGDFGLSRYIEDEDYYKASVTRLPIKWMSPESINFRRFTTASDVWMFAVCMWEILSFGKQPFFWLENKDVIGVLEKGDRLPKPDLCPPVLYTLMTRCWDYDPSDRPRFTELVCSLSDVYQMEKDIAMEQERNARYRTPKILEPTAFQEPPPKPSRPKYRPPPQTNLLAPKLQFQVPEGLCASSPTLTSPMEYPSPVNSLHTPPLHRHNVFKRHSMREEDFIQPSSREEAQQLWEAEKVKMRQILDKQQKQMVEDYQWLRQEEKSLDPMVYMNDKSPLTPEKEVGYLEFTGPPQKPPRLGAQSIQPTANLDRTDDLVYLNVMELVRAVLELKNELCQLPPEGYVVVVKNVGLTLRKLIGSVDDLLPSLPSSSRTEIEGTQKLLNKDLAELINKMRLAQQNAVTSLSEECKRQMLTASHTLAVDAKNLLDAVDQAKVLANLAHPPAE

Take `O=C(c1ccccc1)N1CCN(c2nnc(Cc3ccccc3)c3ccccc23)CC1`: the inhibition of growth at 10 µM in the experiment with BT-549 came out at 24.3%; in experiment [1] it was 68.5%; in the experiment with HT-29, 40.4%; in the experiment with KG-1 it was 73.6%; in the experiment on T84, 26.3%; with MCF7 it was 38.4%. Besides, the inhibition of growth at 10 µM in the experiment on SK-MEL-1 came out at 54.9%; in the experiment on G-361 it was 47.9%; in the experiment on A-375, 32.1%; in experiment [15], 75.8%; in the experiment on MOLT-4 it was 51.2%. The IC50 – broadly, the concentration that inhibits the measured activity by half – in experiment [2] was found to be 3.66 µM; in experiment [3] it was 5.254 µM; in [4], 3.42 µM; in [5], 0.0625 µM; in experiment [6] it was 7.82 µM; in experiment [8], 0.115 µM. In addition, the IC50 in experiment [9] was 4.88 µM; in [10], 7.18 µM; in experiment [11] it was 5.03 µM; in experiment [12] it was 0.276 µM; in [14] it was 3.57 µM. The Ratio IC50 is 1.84 in experiment [7] and 4.41 in experiment [13].
As for `COc1ccc(NC(=O)N2CCN(c3nnc(Cc4ccccc4)c4ccccc34)CC2)cc1`, the inhibition of growth at 10 µM with BT-549 turned out to be 43.9%; in experiment [1] it was 71.5%; with HT-29, 54.1%; in the experiment on KG-1 it was 71.3%; in the experiment with T84, 48%; in the experiment on MCF7 it was 34%. Further, the inhibition of growth at 10 µM was found to be 54.3% with SK-MEL-1; 25.7% in the experiment with G-361; 34.9% in the experiment with A-375; 85.2% in [15]; 52.9% in the experiment with MOLT-4. Moreover, the IC50 came to 4.26 µM in [2]; 4.567 µM in experiment [3]; 1.7 µM in [4]; 0.0665 µM in experiment [5]; 2.43 µM in [6]; 0.108 µM in experiment [8]. Besides, the IC50 in experiment [9] worked out at 2.33 µM; in experiment [10], 8.5 µM; in [11] it was 4.6 µM; in experiment [12], 0.28 µM; in [14], 7.25 µM. Besides, the Ratio IC50 stood at 1.63 in experiment [7] and 4.22 in experiment [13].
In the case of `O=C(c1ccc(Cl)cc1)N1CCN(c2nnc(Cc3ccccc3)c3ccccc23)CC1`, the inhibition of growth at 10 µM in the experiment on BT-549 turned out to be 0.65%; in [1] it was 57.4%; in the experiment with HT-29, 4.9%; in the experiment on KG-1, 8.36%; with T84 it was 16.7%; with MCF7, 18.6%. In addition, the inhibition of growth at 10 µM turned out to be 10.4% with SK-MEL-1; 24.7% in the experiment on G-361; 15.3% in the experiment with A-375; 45.1% in [15]; 12.1% in the experiment with MOLT-4. The IC50 was determined as 8.75 µM in experiment [2]; 2.628 µM in experiment [3]; 13 µM in experiment [4]; 0.114 µM in experiment [5]; 1.48 µM in experiment [6]; 0.138 µM in [8]. Besides, the IC50 amounted to 3.51 µM in [9]; 3.39 µM in [10]; 8.45 µM in [11]; 0.835 µM in experiment [12]; 3.5 µM in experiment [14]. For the same molecule, the Ratio IC50 in experiment [7] worked out at 1.21; in [13], 7.32.
